Converted amounts (≈) assume the structure as drawn.
System: S.aureus 133
Assay: MIC (MHK) determination by microdilution method in BH medium
Type: cell-based
Details: for Wirksameres Diastereomer: qualitative comparison with Diastereomer 2 of the same example, test not named in the heading, presumably the MIC test; for MIC: Staphylococcus aureus, S.aureus 133, microdilution in BH-Medium, 37°C, read after ca. 20 hours or 3 to 5 days, lowest concentration with no visible growth, samples Diastereomer 1 /Diastereomer 2 = 100:1, read-out: MHK-Werte
Procedure: Die MHK-Werte wurden mit Hilfe der Mikrodilutionsmethode in BH-Medium bestimmt. Jede Prüfsubstanz wurde in DMSO gelöst. In der Mikrotiterplatte wurde durch serielle Verdünnung eine Konzentrationsreihe der Prüfsubstanzen angelegt. Zur Inokulation wurden Übernachtkulturen der Erreger verwandt, die zuvor im Nährmedium 1:250 verdünnt wurden. Zu 100 µl der verdünnten, wirkstoffhaltigen Nährlösungen wurden je 100 µl Inokulationslösung gegeben.
Die Mikrotiterplatten wurden bei 37°C bebrütet und nach ca. 20 Stunden oder nach 3 bis 5 Tagen abgelesen. Der MHK-Wert (µg/ml) gibt die niedrigste Wirkstoffkonzentration an, bei der kein Wachstum zu erkennen war.

MIC | SMILES | Wirksameres Diastereomer
– | C=CC(O)[C@H]1CN(c2ccc3c(c2)OCc2nccn2-3)C(=O)O1 (single isomer, unassigned) [Beispiel 1 Diastereomer 1] | Wirksameres Diastereomer
1.5 µg/mL (≈ 4.79 µM) | C=CC(O)[C@H]1CN(c2ccc3c(c2)OCc2nccn2-3)C(=O)O1 (single isomer, unassigned) [Beispiel 1] | –
– | C#CC(O)[C@H]1CN(c2ccc3c(c2)OCc2nccn2-3)C(=O)O1 (single isomer, unassigned) [Beispiel 2 Diastereomer 1] | Wirksameres Diastereomer
1 µg/mL (≈ 3.21 µM) | C#CC(O)[C@H]1CN(c2ccc3c(c2)OCc2nccn2-3)C(=O)O1 (single isomer, unassigned) [Beispiel 2] | –

— patent EP1029854A1, “Oxazolidinones and their use as antibacterial agents” (BAYER AG, priority 1999, dated 2000)
